What was measured:
Assay type in all cases: cell-based
[1] = system: LN18 glioblastoma cell line; assay: In-vitro cell survival assay (Alamar blue), LN18; settings: LN18, one day after compound addition
Method: (§1) Five tumor-derived cell lines were treated with the ROS inhibitor compounds and cell survival was monitored to determine the cancer prohibition effects of the compounds. The cell lines included HeLa, a cervical cancer cell line, and four glioblastoma cell lines U138, U87, LN18, and U118. The basic protocol for the in-vitro cell survival assay is the same for all five cell lines. In particular, the cells were seeded in 96-well plates at 2-5×10^3 cells/well (cell line dependent) in culture medium. The cells were grown for 2 days before the compounds were dissolved in DMSO and added to final concentrations of 100 uM, 10 uM, or 1 uM (DMSO final concentration 0.5%). The cell culture was then assayed one day after the addition of the compounds. The assay used Alamar blue as a redox-sensitive dye that interrogates mitochondrial fitness of cells, and these assays provided a readout for cell proliferation and viability. The raw values were normalized to an average of several vehicle control wells and are presented as percent decrease in proliferation/viability, which is converted to half maximal effective concentration (EC50) values.

[2] = system: U87 glioblastoma cell line; assay: In-vitro cell survival assay (Alamar blue), U87; settings: U87, one day after compound addition
Method: as §1

[3] = system: U138 glioblastoma cell line; assay: In-vitro cell survival assay (Alamar blue), U138; settings: U138, one day after compound addition
Method: as §1

[4] = system: U118 glioblastoma cell line; assay: In-vitro cell survival assay (Alamar blue), U118; settings: U118, one day after compound addition
Method: as §1

[5] = system: HeLa cervical cancer cell line; assay: In-vitro cell survival assay (Alamar blue), HeLa; settings: one day after compound addition
Method: as §1

| SMILES | EC50 ([1]; Homo sapiens, LN-18, 24 h) | EC50 ([2]; 24 h) | EC50 ([3]; 24 h) | EC50 ([4]; 24 h) | EC50 ([5]; Homo sapiens, 24 h) | EC50 [1] | EC50 [2] | EC50 [3] | EC50 [4] | EC50 [5] |
| --- | --- | --- | --- | --- | --- | --- | --- | --- | --- | --- |
| Cc1cccc(Nc2nccc(Nc3cccc(C(=O)NCc4ccc(F)cc4)c3)n2)c1 [drawing 379] | 7 µM | 13 µM | 19 µM | 28 µM | 13 µM | – | – | – | – | – |
| CCC(C)(C)NC(=O)c1cccc(Nc2nccc(Nc3ccc4ncsc4c3)n2)c1 [drawing 380] | 15 µM | 22 µM | 46 µM | 15 µM | 8 µM | – | – | – | – | – |
| Cc1cccc(Nc2nccc(Nc3cccc(C(=O)NCCN4CCOCC4)c3)n2)c1 [drawing 381] | 11 µM | 36 µM | 54 µM | 17 µM | 43 µM | – | – | – | – | – |
| Cc1cccc(Nc2nccc(Nc3cccc(C(=O)Nc4ccc(F)cc4)c3)n2)c1 [drawing 382] | 6 µM | 27 µM | 75 µM | 30 µM | 14 µM | – | – | – | – | – |
| Clc1ccc(CNc2cc(-c3ccccc3)ncn2)cc1 [drawing 383] | 62 µM | 38 µM | 62 µM | 33 µM | > 100 µM | – | – | – | – | – |
| COc1cccc(Nc2nc(N)c(C(=O)c3c(C)[nH]c4ccccc34)s2)c1 [drawing 384] | 10 µM | 15 µM | 19 µM | 16 µM | 72 µM | – | – | – | – | – |
| O=C(c1cccc(-c2noc(-c3n[nH]c4c3CCCC4)n2)c1)N1CCCCC1 [drawing 385] | 62 µM | 14 µM | 83 µM | 83 µM | > 100 µM | – | – | – | – | – |
| CCN(CCO)c1nc(Nc2ccc(F)cc2)c2cnn(-c3ccccc3)c2n1 [drawing 386] | 7 µM | 10 µM | 57 µM | 58 µM | 54 µM | – | – | – | – | – |
| COc1ccc(Nc2nc(N(C)CCO)nc3c2cnn3-c2ccccc2)cc1 [drawing 387] | 6 µM | 11 µM | 9 µM | 8 µM | 7 µM | – | – | – | – | – |
| CC(C)(C)c1cc(C(=O)NNc2cccc(Cl)c2)n(Cc2ccccc2)n1 [drawing 389] | > 100 µM | 50 µM | > 100 µM | > 100 µM | > 100 µM | – | – | – | – | – |
| O=C(NNc1cc(C(F)(F)F)ccc1Cl)c1cccnc1Oc1ccccc1 [drawing 390] | 58 µM | 96 µM | > 100 µM | > 100 µM | 59 µM | – | – | – | – | – |
| O=C1NCCN1CCN1C(=O)c2ccccc2N[C@H]1c1ccccc1 [drawing 391] | 36 µM | > 100 µM | > 100 µM | 38 µM | > 100 µM | – | – | – | – | – |
| O=C1NN=C(c2ccccc2)/C1=C1\OC(c2ccccc2)=CS1 [drawing 392] | 17 µM | 37 µM | > 100 µM | 27 µM | 23 µM | – | – | – | – | – |
| Cc1ccc(-n2cc(-c3cccs3)nc2SCc2n[nH]c(=S)n2Cc2ccccc2)cc1 [drawing 393] | – | – | – | – | – | > 100 µM | 24 µM | > 100 µM | > 100 µM | > 100 µM |
| O=c1[nH][nH]c2nnc(-c3ccccc3)c(-c3ccccc3)c12 [drawing 394] | – | – | – | – | – | > 100 µM | 28 µM | > 100 µM | > 100 µM | > 100 µM |
| Nc1nc(N)n(-c2ccccc2)/c(=N/c2ccccc2)n1 [drawing 395] | > 100 µM | 33 µM | > 100 µM | > 100 µM | > 100 µM | – | – | – | – | – |

| SMILES | EC50 ([1]; Homo sapiens, LN-18, 24 h) | EC50 ([2]; 24 h) | EC50 ([3]; 24 h) | EC50 ([4]; 24 h) | EC50 ([5]; Homo sapiens, 24 h) | EC50 [1] | EC50 [2] | EC50 [3] | EC50 [4] | EC50 [5] |
| --- | --- | --- | --- | --- | --- | --- | --- | --- | --- | --- |
| CSc1sc(-c2n[nH]cc2Br)c2c1C(=O)CC(C)(C)C2 [drawing 396] | – | – | – | – | – | 94 µM | 18 µM | > 100 µM | > 100 µM | > 100 µM |
| FC(F)(F)c1cc(-n2c(Cc3cccc4ccccc34)n[nH]c2=S)cc(C(F)(F)F)c1 [drawing 397] | – | – | – | – | – | > 100 µM | 20 µM | > 100 µM | > 100 µM | 62 µM |
| Cc1nc2cc(C(=O)N[C@H](c3ccccc3)c3cccnc3)ccc2[nH]1 [drawing 398] | > 100 µM | > 100 µM | > 100 µM | > 100 µM | > 100 µM | – | – | – | – | – |
| Cc1cc(C)c(NC(=O)c2cc3ccccc3c(=O)s2)c(-c2cc(C)[nH]n2)c1 [drawing 400] | – | – | – | – | – | > 100 µM | > 100 µM | > 100 µM | > 100 µM | > 100 µM |
| NC(=O)c1c(NC(=O)Nc2ccccc2)sc2c1CCCC2 [drawing 401] | 38 µM | 80 µM | 27 µM | 34 µM | 16 µM | – | – | – | – | – |
| Cn1c(=O)c2c(nc3n(CCO)c(-c4ccccc4)cn23)n(C)c1=O [drawing 402] | > 100 µM | > 100 µM | > 100 µM | > 100 µM | > 100 µM | – | – | – | – | – |
| CC1=NNC(=O)/C1=C\c1cn(-c2ccccc2)nc1-c1ccccc1 [drawing 403] | 12 µM | 8 µM | 8 µM | 7 µM | 20 µM | – | – | – | – | – |
| Cc1ccc(F)cc1S(=O)(=O)Nc1cccc(C(=O)OCC(=O)NC2CCCCC2)c1 [drawing 404] | > 100 µM | 33 µM | > 100 µM | > 100 µM | > 100 µM | – | – | – | – | – |
| O=C1c2ccccc2C(=O)N1C[C@H](O)Cn1nc(-c2cccs2)c2ccccc2c1=O [drawing 405] | > 100 µM | > 100 µM | > 100 µM | > 100 µM | > 100 µM | – | – | – | – | – |
| O=c1c(O)c(-c2ccc(O)c(O)c2)oc2cc(O)cc(O)c12 [drawing 406] | 24 µM | 36 µM | > 100 µM | 33 µM | 21 µM | – | – | – | – | – |
| O=C(NCC1CCCCC1)c1cccc(Nc2nccc(Nc3ccc4ncsc4c3)n2)c1 [drawing 407] | 87 µM | 33 µM | > 100 µM | > 100 µM | > 100 µM | – | – | – | – | – |
| CC(C)(CO)NC(=O)c1cccc(Nc2nccc(Nc3ccc4ncsc4c3)n2)c1 [drawing 408] | 10 µM | 17 µM | 16 µM | 18 µM | 12 µM | – | – | – | – | – |
| Nc1nc(Nc2ccc(C(=O)N3CCCCCC3)cc2)cc(Nc2ccc3ncsc3c2)n1 [drawing 409] | 14 µM | 25 µM | > 100 µM | > 100 µM | 50 µM | – | – | – | – | – |
| O=C(NCc1cccs1)c1cccc(Nc2nccc(Nc3ccc4ncsc4c3)n2)c1 [drawing 410] | 11 µM | 25 µM | 26 µM | 23 µM | 9 µM | – | – | – | – | – |
| O=C(NCCN1CCOCC1)c1cccc(Nc2nccc(Nc3ccc4ncsc4c3)n2)c1 [drawing 411] | > 100 µM | 18 µM | > 100 µM | > 100 µM | 19 µM | – | – | – | – | – |
| Cc1cccc(Nc2nccc(Nc3cccc(C(=O)NCc4ccccc4F)c3)n2)c1 [drawing 412] | 6 µM | 11 µM | 34 µM | 16 µM | 9 µM | – | – | – | – | – |

— patent US9963452B2, “Methods, compounds, and compositions for inhibition of ROS” (AUGUSTA PHARMACEUTICALS INC., priority 2013, dated 2018)
